Values of other authors as cited in US20250255801A1, “Novel Parenteral Composition Comprising Linagliptin or its Salts” (Zenvision Pharma LLP, priority 2021, published 2025).
Values after ≈ are worked out from the molar mass of the structure shown.

What was measured:
[1] = high solubility and low permeability
[2] = not given; remark: listed apart in the source

BCS class [1]: Class III
Solubility in acetone (acetone): ca. 1 mg/mL
Solubility in ethanol (ethanol): ca. 10 mg/mL
Solubility in isopropanol (isopropanol): < 1000 µg/mL
Solubility in methanol (methanol): ca. 60 mg/mL
Solubility in water (water): 900 µg/mL (≈ 1900 µM)
oral systemic bioavailability [2]: approximately 30%
SMILES: CC#CCn1c(N2CCC[C@@H](N)C2)nc2c1c(=O)n(Cc1nc(C)c3ccccc3n1)c(=O)n2C [Linagliptin, 1H-Purine-2,6-dione, 8-[(3R)-3-amino-1-piperidinyl]-7-(2-butyn-1-yl)-3,7-dihydro-3-methyl-1-[(4-methyl-2 quinazolinyl)methyl]-]
